The results in this text go back to paper PMC10729476, “Functional characterization of four opsins and two G alpha subtypes co-expressed in the molluscan rhabdomeric photoreceptor” (BMC Biology, 2023).

One experiment concerns the target T1, Limax xenopsin (Ambigolimax valentianus, UniProt A0A455SJK2).
T1 construct: wild-type xenopsin in pMT vector, C-terminal rho 1D4 tag (ETSQVAPA; tag stated, 1D4 purification), HEK293S cells, extracted in dodecyl maltoside
T1 sequence (A0A455SJK2 1-421): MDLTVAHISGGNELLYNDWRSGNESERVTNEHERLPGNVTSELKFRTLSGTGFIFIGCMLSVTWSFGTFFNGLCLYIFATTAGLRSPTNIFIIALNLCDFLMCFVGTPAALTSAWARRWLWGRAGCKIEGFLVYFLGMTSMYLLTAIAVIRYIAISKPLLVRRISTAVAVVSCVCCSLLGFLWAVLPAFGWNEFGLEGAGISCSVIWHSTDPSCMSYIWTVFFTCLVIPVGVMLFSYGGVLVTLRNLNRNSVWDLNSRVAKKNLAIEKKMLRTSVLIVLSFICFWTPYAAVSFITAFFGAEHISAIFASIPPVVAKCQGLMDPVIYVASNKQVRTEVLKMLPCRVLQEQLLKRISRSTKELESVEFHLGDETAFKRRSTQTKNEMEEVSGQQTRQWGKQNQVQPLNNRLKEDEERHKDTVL
Nature of the experiment: UV-VIS absorption spectroscopy of reconstituted purified pigment. The class given is binding. The conditions noted are these: chromophore added to expressing cells; covalent (retinylidene Schiff base to conserved Lys, general for opsins); 1% dodecyl maltoside extraction; 4 °C.

The next experiment concerns the target T2, Limax Opn5A (Ambigolimax valentianus, UniProt A0A455SGG5).
T2 construct: wild-type Opn5A in pMT vector, C-terminal rho 1D4 tag (ETSQVAPA; tag stated, 1D4 purification), HEK293S cells, extracted in dodecyl maltoside
T2 sequence (A0A455SGG5 1-425): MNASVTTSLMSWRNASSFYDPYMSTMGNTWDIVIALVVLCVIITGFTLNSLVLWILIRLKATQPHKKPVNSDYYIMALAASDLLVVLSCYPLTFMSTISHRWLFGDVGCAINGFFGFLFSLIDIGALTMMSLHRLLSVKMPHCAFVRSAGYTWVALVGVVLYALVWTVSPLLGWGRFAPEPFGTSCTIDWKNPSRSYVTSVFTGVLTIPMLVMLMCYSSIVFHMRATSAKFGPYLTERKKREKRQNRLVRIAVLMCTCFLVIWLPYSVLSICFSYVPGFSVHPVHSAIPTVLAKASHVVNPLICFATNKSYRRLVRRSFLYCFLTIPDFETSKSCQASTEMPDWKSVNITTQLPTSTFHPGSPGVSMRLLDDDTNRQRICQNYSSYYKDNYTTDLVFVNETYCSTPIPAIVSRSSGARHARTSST
Described as above. To be noted: chromophore added to expressing cells; covalent (retinylidene Schiff base to conserved Lys, general for opsins); 1% dodecyl maltoside extraction; 4 °C; low expression, impurities, spectrum fitted with. The class given is binding.

Each structure is given as a SMILES string.

For the compound `CC1=C(/C=C/C(C)=C/C=C\C(C)=C\C=O)C(C)(C)CCC1` [11-cis retinal], the “UV-VIS absorption spectroscopy of reconstituted purified pigment” value on Limax xenopsin was “After the addition of the 11-cis retinal, opsin-based pigments were extracted”; at Limax Opn5A, “After the addition of the 11-cis retinal, opsin-based pigments were extracted”.
